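48-hour exposure; five concentrations; linearly interpolated endpoints. GI50 marks 50% less growth.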 Active and inactive are the calls of the source. Rule as the data show it: active = GI50 up to about 1.1 µM and inactive = higher.
Legend:
Experiment in all cases: NCI tumour cell line growth inhibition, 48 h
OVCAR-3 = system: OVCAR-3
OVCAR-8 = system: OVCAR-8
SN12C = system: SN12C
NCI-H226 = system: NCI-H226
SW-620 = system: SW-620
UACC-257 = system: UACC-257
M14 = system: M14
CAKI-1 = system: CAKI-1
MCF7 = system: MCF7
HL-60 = system: HL-60
T47D = system: T47D
U-251 = system: U-251
CCRF-CEM = system: CCRF-CEM
HT-29 = system: HT-29
OVCAR-5 = system: OVCAR-5
KM12 = system: KM12
MDA-N = system: MDA-N
DU-145 = system: DU-145
RXF 393 = system: RXF 393
COLO 205 = system: COLO 205
ACHN = system: ACHN
NCI-H522 = system: NCI-H522
OVCAR-4 = system: OVCAR-4
BT-549 = system: BT-549
SK-MEL-5 = system: SK-MEL-5
SF-295 = system: SF-295
SNB-19 = system: SNB-19
K562 = system: K562
SNB-75 = system: SNB-75
HCT-116 = system: HCT-116
Malme-3M = system: Malme-3M
MOLT-4 = system: MOLT-4
A549 = system: A549
HCC 2998 = system: HCC 2998
A498 = system: A498
PC-3 = system: PC-3
HOP-92 = system: HOP-92
SK-OV-3 = system: SK-OV-3
UACC-62 = system: UACC-62
MDA-MB-435 = system: MDA-MB-435
NCI-H23 = system: NCI-H23
HOP-62 = system: HOP-62
IGROV-1 = system: IGROV-1
SF-268 = system: SF-268
SF-539 = system: SF-539
LOX IMVI = system: LOX IMVI
UO-31 = system: UO-31
RPMI-8226 = system: RPMI-8226
NCI-H460 = system: NCI-H460
786-0 = system: 786-0
EKVX = system: EKVX
SK-MEL-2 = system: SK-MEL-2
HCT-15 = system: HCT-15
NCI/ADR-RES = system: NCI/ADR-RES
SK-MEL-28 = system: SK-MEL-28
TK-10 = system: TK-10
MDA-MB-231 = system: MDA-MB-231

Question: `O=S(=O)(c1ccc(-c2nnc(-c3ccc(F)cc3)o2)cc1)c1ccc(-c2nnc(-c3ccc(F)cc3)o2)cc1` was tested. Which GI50 (OVCAR-3) did it give?
Answer: > 100 µM (inactive)

Question: And the GI50 (OVCAR-8)?
Answer: > 100 µM (inactive)

Question: And the GI50 (SN12C)?
Answer: > 100 µM (inactive)

Question: What about the GI50 (NCI-H226) of the same molecule?
Answer: 61.5 µM (inactive)

Question: What about the GI50 (SW-620) of the same molecule?
Answer: > 100 µM (inactive)

Question: What about the GI50 (UACC-257) of the same molecule?
Answer: > 100 µM (inactive)

Question: What about the GI50 (M14) of the same molecule?
Answer: > 100 µM (inactive)

Question: And the GI50 (CAKI-1)?
Answer: > 100 µM (inactive)

Question: And the GI50 (MCF7)?
Answer: > 100 µM (inactive)

Question: And the GI50 (HL-60)?
Answer: > 100 µM (inactive)

Question: And the GI50 (T47D)?
Answer: > 100 µM (inactive)

Question: What about the GI50 (U-251) of the same molecule?
Answer: 21.7 µM (inactive)

Question: What about the GI50 (CCRF-CEM) of the same molecule?
Answer: > 100 µM (inactive)

Question: And the GI50 (HT-29)?
Answer: > 100 µM (inactive)

Question: What about the GI50 (OVCAR-5) of the same molecule?
Answer: > 100 µM (inactive)

Question: And the GI50 (KM12)?
Answer: > 100 µM (inactive)

Question: And the GI50 (MDA-N)?
Answer: > 100 µM (inactive)

Question: And the GI50 (DU-145)?
Answer: > 100 µM (inactive)

Question: And the GI50 (RXF 393)?
Answer: 22.2 µM (inactive)

Question: What about the GI50 (COLO 205) of the same molecule?
Answer: > 100 µM (inactive)

Question: And the GI50 (ACHN)?
Answer: 14.7 µM (inactive)

Question: And the GI50 (NCI-H522)?
Answer: > 100 µM (inactive)

Question: What about the GI50 (OVCAR-4) of the same molecule?
Answer: > 100 µM (inactive)

Question: What about the GI50 (BT-549) of the same molecule?
Answer: 91 µM (inactive)

Question: And the GI50 (SK-MEL-5)?
Answer: > 100 µM (inactive)

Question: What about the GI50 (SF-295) of the same molecule?
Answer: 55.3 µM (inactive)

Question: And the GI50 (SNB-19)?
Answer: 34.6 µM (inactive)

Question: What about the GI50 (K562) of the same molecule?
Answer: > 100 µM (inactive)

Question: What about the GI50 (SNB-75) of the same molecule?
Answer: 11.1 µM (inactive)

Question: And the GI50 (HCT-116)?
Answer: > 100 µM (inactive)

Question: What about the GI50 (Malme-3M) of the same molecule?
Answer: > 100 µM (inactive)

Question: And the GI50 (MOLT-4)?
Answer: > 100 µM (inactive)

Question: What about the GI50 (A549) of the same molecule?
Answer: > 100 µM (inactive)

Question: What about the GI50 (HCC 2998) of the same molecule?
Answer: > 100 µM (inactive)

Question: And the GI50 (A498)?
Answer: 25.5 µM (inactive)

Question: What about the GI50 (PC-3) of the same molecule?
Answer: > 100 µM (inactive)

Question: What about the GI50 (HOP-92) of the same molecule?
Answer: 82.4 µM (inactive)

Question: What about the GI50 (SK-OV-3) of the same molecule?
Answer: 30.4 µM (inactive)

Question: And the GI50 (UACC-62)?
Answer: > 100 µM (inactive)

Question: And the GI50 (MDA-MB-435)?
Answer: > 100 µM (inactive)

Question: What about the GI50 (NCI-H23) of the same molecule?
Answer: > 100 µM (inactive)

Question: And the GI50 (HOP-62)?
Answer: 27 µM (inactive)

Question: And the GI50 (IGROV-1)?
Answer: > 100 µM (inactive)

Question: What about the GI50 (SF-268) of the same molecule?
Answer: > 100 µM (inactive)

Question: What about the GI50 (SF-539) of the same molecule?
Answer: 50.4 µM (inactive)

Question: What about the GI50 (LOX IMVI) of the same molecule?
Answer: > 100 µM (inactive)

Question: And the GI50 (UO-31)?
Answer: > 100 µM (inactive)

Question: What about the GI50 (RPMI-8226) of the same molecule?
Answer: > 100 µM (inactive)

Question: What about the GI50 (NCI-H460) of the same molecule?
Answer: > 100 µM (inactive)

Question: And the GI50 (786-0)?
Answer: 26.8 µM (inactive)

Question: What about the GI50 (EKVX) of the same molecule?
Answer: > 100 µM (inactive)

Question: What about the GI50 (SK-MEL-2) of the same molecule?
Answer: > 100 µM (inactive)

Question: What about the GI50 (HCT-15) of the same molecule?
Answer: > 100 µM

Question: And the GI50 (NCI/ADR-RES)?
Answer: > 100 µM (inactive)

Question: For `COc1ccc(-c2nc(SCC(=O)N/N=C/c3ccc(N(C)C)cc3)[nH]c2-c2ccc(OC)cc2)cc1`, which GI50 (OVCAR-3) is on record?
Answer: 20.1 µM (inactive)

Question: And the GI50 (OVCAR-8)?
Answer: 84.7 µM (inactive)

Question: What about the GI50 (SN12C) of the same molecule?
Answer: 82 µM (inactive)

Question: And the GI50 (SW-620)?
Answer: 48 µM (inactive)

Question: And the GI50 (SK-MEL-28)?
Answer: > 100 µM (inactive)

Question: What about the GI50 (UACC-257) of the same molecule?
Answer: > 100 µM (inactive)

Question: What about the GI50 (M14) of the same molecule?
Answer: 35.2 µM (inactive)

Question: What about the GI50 (CAKI-1) of the same molecule?
Answer: > 100 µM (inactive)

Question: What about the GI50 (MCF7) of the same molecule?
Answer: 13.5 µM (inactive)

Question: And the GI50 (HL-60)?
Answer: 11.5 µM (inactive)

Question: What about the GI50 (T47D) of the same molecule?
Answer: 10.6 µM (inactive)

Question: What about the GI50 (U-251) of the same molecule?
Answer: 36.9 µM (inactive)

Question: And the GI50 (CCRF-CEM)?
Answer: 8.57 µM (inactive)

Question: And the GI50 (HT-29)?
Answer: 34.6 µM (inactive)

Question: What about the GI50 (OVCAR-5) of the same molecule?
Answer: 99.5 µM (inactive)

Question: What about the GI50 (KM12) of the same molecule?
Answer: 32.6 µM (inactive)

Question: And the GI50 (MDA-N)?
Answer: 76.9 µM (inactive)

Question: What about the GI50 (DU-145) of the same molecule?
Answer: 78.5 µM (inactive)

Question: And the GI50 (RXF 393)?
Answer: 33.4 µM (inactive)

Question: What about the GI50 (COLO 205) of the same molecule?
Answer: 10.2 µM (inactive)

Question: And the GI50 (ACHN)?
Answer: 51.9 µM (inactive)

Question: What about the GI50 (NCI-H522) of the same molecule?
Answer: 31.3 µM (inactive)

Question: What about the GI50 (OVCAR-4) of the same molecule?
Answer: > 100 µM (inactive)

Question: What about the GI50 (BT-549) of the same molecule?
Answer: > 100 µM (inactive)

Question: What about the GI50 (SK-MEL-5) of the same molecule?
Answer: 26.8 µM (inactive)

Question: And the GI50 (SF-295)?
Answer: 37 µM (inactive)

Question: What about the GI50 (SNB-19) of the same molecule?
Answer: > 100 µM (inactive)

Question: What about the GI50 (K562) of the same molecule?
Answer: 18.5 µM (inactive)

Question: And the GI50 (SNB-75)?
Answer: 62.8 µM (inactive)

Question: And the GI50 (HCT-116)?
Answer: 37.9 µM (inactive)

Question: What about the GI50 (Malme-3M) of the same molecule?
Answer: > 100 µM (inactive)

Question: What about the GI50 (TK-10) of the same molecule?
Answer: > 100 µM (inactive)

Question: And the GI50 (A549)?
Answer: 17.6 µM (inactive)

Question: And the GI50 (HCC 2998)?
Answer: 75.9 µM (inactive)

Question: What about the GI50 (A498) of the same molecule?
Answer: 71.9 µM (inactive)

Question: What about the GI50 (PC-3) of the same molecule?
Answer: 44.8 µM (inactive)

Question: And the GI50 (HOP-92)?
Answer: > 100 µM (inactive)

Question: And the GI50 (SK-OV-3)?
Answer: > 100 µM (inactive)

Question: And the GI50 (MDA-MB-231)?
Answer: > 100 µM (inactive)

Question: And the GI50 (UACC-62)?
Answer: 46.7 µM (inactive)

Question: And the GI50 (MDA-MB-435)?
Answer: 74.8 µM (inactive)

Question: What about the GI50 (NCI-H23) of the same molecule?
Answer: > 100 µM (inactive)

Question: And the GI50 (HOP-62)?
Answer: > 100 µM (inactive)

Question: And the GI50 (IGROV-1)?
Answer: > 100 µM (inactive)

Question: And the GI50 (SF-268)?
Answer: > 100 µM (inactive)

Question: And the GI50 (SF-539)?
Answer: > 100 µM (inactive)

Question: And the GI50 (LOX IMVI)?
Answer: 92.9 µM (inactive)

Question: What about the GI50 (UO-31) of the same molecule?
Answer: 82.8 µM (inactive)

Question: What about the GI50 (NCI-H460) of the same molecule?
Answer: 32.7 µM (inactive)

Question: And the GI50 (786-0)?
Answer: 57.7 µM (inactive)

Question: What about the GI50 (EKVX) of the same molecule?
Answer: 90.4 µM (inactive)

Question: And the GI50 (SK-MEL-2)?
Answer: 86.1 µM (inactive)

Question: What about the GI50 (HCT-15) of the same molecule?
Answer: 46.3 µM

Question: And the GI50 (NCI/ADR-RES)?
Answer: > 100 µM (inactive)
